Tests used:
[1] = Microsomal stability assay, human liver microsomes; assay type: in vitro ADME; details: pre-incubation with Cobi vs without
[2] = Microsomal stability assay, mouse liver microsomes; assay type: in vitro ADME; details: pre-incubation with Cobi vs without
Cytotoxicity assay = assay type: cell-based; details: human, TZM-GFP cells

| increase of half-life with Cobicistat (HLM) [1] | increase of half-life with Cobicistat (MLM) [2] | Structure (SMILES) | CC50 at 72 h (Cytotoxicity assay) |
| --- | --- | --- | --- |
| 62 fold | 74 fold | CN(C(=O)[C@H](Cc1ccccc1)NC(=O)Cc1c[nH]c2ccccc12)c1ccc(Br)cc1 [Compd 32, (S)-2-(2-(1H-indol-3-yl)acetamido)-N-(4-bromophenyl)-N-methyl-3-phenylpropanamide] | – |
| – | – | CN(C(=O)[C@H](Cc1ccccc1)NC(=O)Cc1c[nH]c2ccccc12)c1ccc(Cl)nc1 [Compd 37, (S)-2-(2-(1H-indol-3-yl)acetamido)-N-(6-chloropyridin-3-yl)-N-methyl-3-phenylpropanamide] | 57 ± 0.3 µM |

Reference: PMC7492092 (European journal of medicinal chemistry, 2020)
